In patent publication US9271971B2, “Pyrido[3,4-B]indoles and methods of use” (Medivation Technologies, Inc., priority 2009, dated 2016) one finds inhibition data, which are given here for four molecules.

Experiment [1] addresses human recombinant dopamine D2L receptor (Homo sapiens, UniProt P14416). The experiment is described as follows: Dopamine D2L radioligand binding assay. Particulars: [3H]Spiperone specific binding, read-out: Percent Inhibition of ligand binding, Dopamine (1 μM ligand conc.) D2L. The procedure: To evaluate in radioligand binding assays the activity of compounds of the invention, human recombinant dopamine D2L receptor expressed in Chinese hamster ovary (CHO) cells [Grandy, D. K. et al. Proc. Natl. Acad. Sci. USA. (1989), 86:9762; Hayes, G. et al., Mol. Endocrinol. (1992), 6:920] in a modified Tris-HCl buffer (50 mM Tris-HCl, pH 7.4, 1.4 mM Ascorbic Acid, 0.001% BSA, 150 mM NaCl) was used. Compounds of the invention were incubated with 0.16 nM [^3H]Spiperone for 120 min. at 25° C. Non-specific binding was estimated in the presence of 10 μM Haloperidol. Receptor proteins were filtered and washed, the filters were then counted to determine [^3H]Spiperone specifically bound. Compounds were screened at 1 μM or lower, using 1% DMSO as vehicle. Biochemical assay results are presented as the percent inhibition of specific binding in Table 3.

Experiment [2] deals with T1, human recombinant serotonin (5-Hydroxytryptamine) 5-HT2C receptor (Homo sapiens, UniProt P28335).
T1 construct: expressed in transfected cells; host or cells: Chinese hamster ovary (CHO-K1) cells
T1 sequence (P28335 33-458): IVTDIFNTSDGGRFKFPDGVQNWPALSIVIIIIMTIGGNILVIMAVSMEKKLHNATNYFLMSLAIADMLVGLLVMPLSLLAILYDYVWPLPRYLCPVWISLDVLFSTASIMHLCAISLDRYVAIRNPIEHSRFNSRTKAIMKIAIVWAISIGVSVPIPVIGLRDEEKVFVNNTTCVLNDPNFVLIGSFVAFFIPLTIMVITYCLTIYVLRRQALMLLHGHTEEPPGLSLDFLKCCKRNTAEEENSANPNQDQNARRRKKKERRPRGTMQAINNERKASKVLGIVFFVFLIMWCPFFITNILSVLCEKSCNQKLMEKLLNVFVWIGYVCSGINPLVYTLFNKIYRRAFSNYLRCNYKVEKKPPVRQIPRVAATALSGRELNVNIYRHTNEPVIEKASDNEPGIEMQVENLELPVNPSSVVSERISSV
Description: Serotonin 5-HT2C radioligand binding assay. Particulars: [3H]Mesulergine specific binding, read-out: Percent Inhibition of ligand binding, Serotonin (1 μM ligand concentration) 5-HT2C. As for the experimental part:
To evaluate in radioligand binding assays the activity of compounds of the invention, human recombinant serotonin (5-Hydroxytryptamine) 5-HT2C receptor expressed in Chinese hamster ovary (CHO-K1) cells [Wolf, W. A. et al., J. Neurochem. (1997), 69:1449] in a modified Tris-HCl buffer (50 mM Tris-HCl, pH 7.4, 0.1% Ascorbic Acid, 10 μM Pargyline) was used. Compounds of the invention were incubated with 1 nM [^3H]Mesulergine for 60 min. at 25° C. Non-specific binding was estimated in the presence of 1 μM Mianserin. Receptor proteins were filtered and washed, the filters were then counted to determine [^3H]Mesulergine specifically bound. Compounds were screened at 1 μM or lower, using 1% DMSO as vehicle. Biochemical assay results are presented as the percent inhibition of specific binding in Table 4.

Experiment [3] deals with T2, human recombinant serotonin (5-Hydroxytryptamine) 5-HT2A receptor (Homo sapiens, UniProt P28223).
T2 construct: expressed in transfected cells; host or cells: Chinese hamster ovary (CHO-K1) cells
The experiment is described as follows: Serotonin 5-HT2A radioligand binding assay. Particulars: [3H]Ketanserin specific binding, read-out: Percent Inhibition of ligand binding, Serotonin (1 μM ligand concentration) 5-HT2A. As for the experimental part:
To evaluate in radioligand binding assays the activity of compounds of the invention, human recombinant serotonin (5-Hydroxytryptamine) 5-HT2A receptor expressed in Chinese hamster ovary (CHO-K1) cells [Bonhaus, D. W. et al., Br. J. Pharmacol. (1995), 115:622; Saucier, C. et al., J. Neurochem. (1997), 68:1998] in a 50 mM Tris-HCl buffer, pH 7.4, was used. Compounds of the invention were incubated with 0.5 nM [^3H]Ketanserin for 60 min. at 25° C. Non-specific binding was estimated in the presence of 1 μM Mianserin. Receptor proteins were filtered and washed, the filters were then counted to determine [^3H]Ketanserin specifically bound. Compounds were screened at 1 μM or lower, using 1% DMSO as vehicle. Biochemical assay results are presented as the percent inhibition of specific binding in Table 4.

Experiment [4] concerns the target T3, human recombinant adrenergic α2A receptor (Homo sapiens, UniProt P08913).
T3 construct: expressed in transfected cells; host or cells: insect Sf9 cells
T3 sequence (P08913 1-465): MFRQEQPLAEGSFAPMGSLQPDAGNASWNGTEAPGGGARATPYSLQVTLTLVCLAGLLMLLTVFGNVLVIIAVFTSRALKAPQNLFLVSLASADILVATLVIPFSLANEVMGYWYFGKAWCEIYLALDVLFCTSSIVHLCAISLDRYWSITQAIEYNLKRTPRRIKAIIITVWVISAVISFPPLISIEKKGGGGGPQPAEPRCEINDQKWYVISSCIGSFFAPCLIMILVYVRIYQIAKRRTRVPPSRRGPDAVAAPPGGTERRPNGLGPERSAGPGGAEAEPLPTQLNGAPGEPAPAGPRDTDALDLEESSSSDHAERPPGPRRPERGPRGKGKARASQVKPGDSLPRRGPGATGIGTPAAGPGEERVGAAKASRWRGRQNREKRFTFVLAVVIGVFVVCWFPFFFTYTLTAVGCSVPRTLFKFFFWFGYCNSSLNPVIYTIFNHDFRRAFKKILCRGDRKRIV
Description: Adrenergic α2A radioligand binding assay. The settings on record: [3H]MK-912 specific binding; for inhibition at 1 µM: read-out: Percent Inhibition of ligand binding, Adrenergic (1 μM ligand conc.) α2A. The procedure:
To evaluate in radioligand binding assays the activity of compounds of the invention, human recombinant adrenergic α2A receptor expressed in insect Sf9 cells [Uhlen, S et al. J. Pharmacol. Exp. Ther. (1994), 271:1558] in a modified Tris-HCl buffer (50 mM Tris-HCl, pH 7.4, 12.5 mM MgCl2, 2 mM EDTA) was used. Compounds of invention were incubated with 1 nM [^3H]MK-912 for 60 min. at 25° C. MK912 was (2S-trans)-1,3,4,5′,6,6′,7,12b-octahydro-1′,3′-dimethyl-spiro[2H-benzofuro[2,3-a]quinolizine-2,4′(1′H)-pyrimidin]-2′(3′H)-one hydrochloride Non-specific binding was estimated in the presence of 10 μM WB-4101 (2-(2,6-dimethoxyphenoxyethyl)aminomethyl-1,4-benzodioxane hydrochloride). Receptor proteins were filtered and washed, the filters were then counted to determine [^3H]MK-912 specifically bound. Compounds were screened at 1 μM or lower, using 1% DMSO as vehicle. Compounds of the invention were tested in this biochemical assay. Biochemical assay results for representative compounds were presented as the percent inhibition of specific binding in Table 3.

Chain of human recombinant dopamine D2L receptor (P14416 whole entry): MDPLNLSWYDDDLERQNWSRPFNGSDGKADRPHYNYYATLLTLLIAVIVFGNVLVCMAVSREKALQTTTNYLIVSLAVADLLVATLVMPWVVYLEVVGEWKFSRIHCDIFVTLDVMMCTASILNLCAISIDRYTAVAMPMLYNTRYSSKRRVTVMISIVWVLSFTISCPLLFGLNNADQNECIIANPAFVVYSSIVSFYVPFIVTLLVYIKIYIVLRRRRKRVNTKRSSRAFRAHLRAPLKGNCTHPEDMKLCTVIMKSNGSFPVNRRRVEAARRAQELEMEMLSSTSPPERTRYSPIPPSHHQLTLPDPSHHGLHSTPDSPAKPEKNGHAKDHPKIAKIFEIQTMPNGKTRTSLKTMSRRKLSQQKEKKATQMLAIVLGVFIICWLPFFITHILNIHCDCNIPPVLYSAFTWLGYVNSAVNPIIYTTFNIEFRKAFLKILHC
T2 sequence (P28223 whole entry): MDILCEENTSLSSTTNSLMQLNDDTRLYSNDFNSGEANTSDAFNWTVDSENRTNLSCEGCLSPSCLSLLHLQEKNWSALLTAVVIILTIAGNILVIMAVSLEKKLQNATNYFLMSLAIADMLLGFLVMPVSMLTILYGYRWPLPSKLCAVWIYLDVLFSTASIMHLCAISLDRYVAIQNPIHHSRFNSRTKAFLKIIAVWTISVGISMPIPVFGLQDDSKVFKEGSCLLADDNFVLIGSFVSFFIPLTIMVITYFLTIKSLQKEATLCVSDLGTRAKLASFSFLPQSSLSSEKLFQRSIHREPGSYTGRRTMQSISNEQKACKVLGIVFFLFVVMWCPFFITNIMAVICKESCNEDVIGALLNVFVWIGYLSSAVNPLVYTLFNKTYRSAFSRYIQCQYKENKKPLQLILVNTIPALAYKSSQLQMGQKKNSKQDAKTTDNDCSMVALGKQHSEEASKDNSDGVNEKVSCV

As for `Cc1ccc(C(C)(O)Cn2c3c(c4cc(C)ccc42)C2CCN(C3)C2)cc1` (stereo not shown) [Compound 20], the inhibition at 1 µM in experiment [1] worked out at 9%; in experiment [2], 94%; in experiment [3] it was 102%; in experiment [4], 28%.

For `Cc1ccc2c(c1)c1c(n2CCc2nc(-c3ccccc3)cs2)CN2CCC1C2` (stereo not shown) [Compound 19], the inhibition at 1 µM was -2% in experiment [1], 23% in experiment [2], 0% in experiment [3] and -10% in experiment [4].

`Cc1ccc2c(c1)c1c(n2CC(C)(O)c2ccc(F)c(F)c2)CN2CCC1C2` (stereo not shown) [Compound 15]: the inhibition at 1 µM is 0% in experiment [1], 87% in experiment [2], 82% in experiment [3] and 21% in experiment [4].

In the case of `C/C(=C\n1c2c(c3cc(C)ccc31)C1CCN(C2)C1)c1ccccc1F` (stereo not shown) [Compound 38], the inhibition at 1 µM amounted to 1% in experiment [1], 93% in experiment [2] and 90% in experiment [3]. In addition, in experiment [4] (0.1 μM, read-out: Percent Inhibition of ligand binding, Adrenergic (0.1 μM ligand conc.) α2A), the inhibition at 0.1 µM stood at 3%.
